This is an account of results in ChEMBL document CHEMBL3875182 (Bioorg Med Chem, 2017).

Values after ≈ are worked out from the molar mass of the structure shown. Some results are limits rather than exact numbers.

In assay [1] the test system is Mycobacterium tuberculosis. The assay can be described thus: Antibacterial activity against isoniazid/rifampin-resistant Mycobacterium tuberculosis after 8 to 9 days by BacT/Alert MP bottle assay. The class given is functional.
Assay [2] has as its system Mycobacterium tuberculosis. In words: Antibacterial activity against rifampin-resistant Mycobacterium tuberculosis after 8 to 9 days by BacT/Alert MP bottle assay. The format is functional.

On to `O=[N+]([O-])c1ccc(C2=Nn3c(Cc4ccc5ccccc5c4)nnc3SC2)cc1`, for which the MIC in assay [1] and in assay [2] was 4 µg/mL (≈ 9.96 µM) in each case.
In the case of `Fc1ccc(-c2nnc3sc(COc4ccccc4)nn23)cc1`, the minimal inhibitory concentration (MIC) in assay [1] and in assay [2] was 8 µg/mL (≈ 24.5 µM) each time.
`Brc1ccc(-c2nnc3n2N=C(c2ccccc2)CS3)cc1`: the values for the MIC in assay [1] and in assay [2] were 2 µg/mL (≈ 5.39 µM) and 1 µg/mL (≈ 2.69 µM), respectively.
Consider `CO[C@H]1/C=C/O[C@@]2(C)Oc3c(C)c(O)c4c(O)c(c(/C=N/N5CCN(C)CC5)c(O)c4c3C2=O)NC(=O)/C(C)=C\C=C\[C@H](C)[C@H](O)[C@@H](C)[C@@H](O)[C@@H](C)[C@H](OC(C)=O)[C@@H]1C` [RIFAMPIN], for which the figures for the MIC in assay [1] and in assay [2] were no less than 16 µg/mL and 16 µg/mL (≈ 19.4 µM), respectively.
The matching figures for `NNC(=O)c1ccncc1` [ISONIAZID]: 4 µg/mL (≈ 29.2 µM) and 1 µg/mL (≈ 7.29 µM).
The matching figures for `COc1ccc(C2=Nn3c(nnc3-c3ccncc3)SC2)cc1`: 4 µg/mL (≈ 12.4 µM) and 2 µg/mL (≈ 6.18 µM).
As to `O=[N+]([O-])c1ccc(C2=Nn3c(nnc3-c3ccncc3F)SC2)cc1`, the MIC came to 4 µg/mL (≈ 11.2 µM) in assay [1] and 2 µg/mL (≈ 5.61 µM) in assay [2].
In the case of `c1ccc(C2=Nn3c(nnc3-c3ccccc3)SC2)cc1`, the values for the minimal inhibitory concentration (MIC) in assay [1] and in assay [2] were 4 µg/mL (≈ 13.7 µM) and 2 µg/mL (≈ 6.84 µM), respectively.
The matching figures for `O=[N+]([O-])c1ccc(C2=Nn3c(nnc3-c3ccc(Br)cc3)SC2)cc1`: 2 µg/mL (≈ 4.8 µM) and 0.25 µg/mL (≈ 0.601 µM).

As usually defined, the MIC is the lowest concentration found to suppress growth. A higher MIC goes with a need for much substance.
